According to EP1363899B1, “QUINAZOLONE DERIVATIVES AS ALPHA 1A/B ADRENERGIC RECEPTOR ANTAGONISTS” (F.HOFFMANN-LA ROCHE AG, priority 2001, dated 2002):

Assays:
[1] = biological target: T1, alpha-1B adrenoceptor (Homo sapiens, UniProt P35368); experiment: [3H]prazosin binding (alpha1-adrenoceptor) assay, alpha-1B; conditions: membranes of transfected CHO-KI cells, read-out: affinity towards the alpha-1B adrenoceptor (pKi) (converted)
T1 construct: expressed in transfected cells; host or cells: CHO-K1
T1 sequence (P35368 1-520): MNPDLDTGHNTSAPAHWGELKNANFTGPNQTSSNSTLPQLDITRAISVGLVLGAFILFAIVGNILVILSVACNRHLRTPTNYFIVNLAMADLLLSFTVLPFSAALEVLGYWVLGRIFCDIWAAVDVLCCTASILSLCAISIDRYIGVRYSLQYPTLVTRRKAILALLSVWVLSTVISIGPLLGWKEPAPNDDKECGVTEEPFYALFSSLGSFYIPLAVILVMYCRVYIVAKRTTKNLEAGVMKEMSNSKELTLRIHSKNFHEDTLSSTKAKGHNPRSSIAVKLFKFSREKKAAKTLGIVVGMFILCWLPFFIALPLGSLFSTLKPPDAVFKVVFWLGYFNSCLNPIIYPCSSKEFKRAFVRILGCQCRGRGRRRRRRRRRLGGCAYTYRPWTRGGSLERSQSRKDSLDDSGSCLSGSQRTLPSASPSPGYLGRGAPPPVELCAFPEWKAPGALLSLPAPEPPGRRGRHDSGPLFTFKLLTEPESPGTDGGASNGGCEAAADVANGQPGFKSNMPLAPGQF
Protocol: (§1) Alpha1A, alpha1B, and alpha1D adrenoceptor transfected CHO-KI cells, prepared using the methods described by Chang et al., FEBS Lett. 1998, 422:279-283, were grown to confluence in T-162 tissue culture flasks in Ham's F-12 culture medium supplemented with 10% fetal bovine serum, geneticin (150 µg/mL) and streptomycin/penicillin (30 µg/mL/30 µg/mL) at 37 °C in 7% CO2. Cells were harvested by incubating with phosphate-buffered saline (PBS) containing 30 µM EDTA for 5-10 min at 37 °C. Cells were pelleted by centrifuging at 500 x g for 5 min, and the pelleted cells were homogenized (Polytron homogenizer) in 10 vols (w/v) of 50 mM Tris, 1 mM EDTA, (homogenisation buffer, pH 7.4 at 4 °C). The homogenate was centrifuged at 45,000 x g for 20 min. The pellet was resuspended in the homogenizing buffer and rehomogenized. The resulting homogenate was centrifuged at 45,000 x g for 20 min. The pellet was resuspended in 50 mM Tris buffer (pH 7.4 at 4 °C), aliquoted, frozen, and stored at -80 °C for further use.
(§2) The membranes were thawed at room temperature and diluted in assay buffer (50 mM Tris buffer at […]) at 37 °C and homogenized using the Polytron tissue disrupter. The membranes were incubated with the radioligand ([^3H]prazosin, NEN, 0.1 - 0.5 nM) and test compound at 37 °C for 30 min. The membranes were then filtered over polyethyleneimine-treated GF/B unifilter plates using a Packard Filtermate Harvester and washed with ice-cold 50 mM Tris-HCl, 1 mM EDTA buffer (3 x 3 sec. washes). Scintillation cocktail was added to the filter plates and bound radioligand determined by liquid scintillation spectrophotometry.
(§3) For each experiment, total binding (in the absence of any test or reference compounds) and non-specific binding (10 µM phentolamine) were determined. For each sample tested, the concentration producing 50% inhibition of binding (IC50) and Hill Slope (nH) was determined using iterative non-linear curve fitting techniques with Kaleidagraph (Synergy Software) or other appropriate software. If the radioligand KD was known, the inhibition dissociation constant (K1) of each ligand was determined according to the method of Cheng and Prusoff (Cheng, Y-C. and Prusoff, W.H., Biochem. Pharmacol., 1973, 22, 3099-3108).

[2] = biological target: T2, alpha-1A adrenoceptor (Homo sapiens, UniProt P35348); experiment: [3H]prazosin binding (alpha1-adrenoceptor) assay, alpha-1A; conditions: membranes of transfected CHO-KI cells, read-out: affinity towards the alpha-1A adrenoceptor (pKi) (converted)
T2 construct: expressed in transfected cells; host or cells: CHO-K1
T2 sequence (P35348 1-466): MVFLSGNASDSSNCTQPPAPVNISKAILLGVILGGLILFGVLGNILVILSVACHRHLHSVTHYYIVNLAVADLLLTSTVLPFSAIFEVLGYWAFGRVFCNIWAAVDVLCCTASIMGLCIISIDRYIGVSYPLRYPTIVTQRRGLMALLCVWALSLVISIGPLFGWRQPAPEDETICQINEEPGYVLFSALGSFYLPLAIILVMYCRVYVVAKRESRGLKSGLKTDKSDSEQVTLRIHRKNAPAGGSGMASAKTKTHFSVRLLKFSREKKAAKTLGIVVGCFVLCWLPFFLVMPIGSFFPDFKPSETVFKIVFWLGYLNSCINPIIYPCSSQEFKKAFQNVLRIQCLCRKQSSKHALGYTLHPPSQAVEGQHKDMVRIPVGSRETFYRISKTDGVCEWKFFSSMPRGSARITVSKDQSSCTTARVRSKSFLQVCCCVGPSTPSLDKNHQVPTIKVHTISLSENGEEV
Protocol: as §1, §2, §3

[3] = biological target: T3, alpha-1D adrenoceptor (Homo sapiens, UniProt P25100); experiment: [3H]prazosin binding (alpha1-adrenoceptor) assay, alpha-1D; conditions: membranes of transfected CHO-KI cells, read-out: affinity towards the alpha-1D adrenoceptor (pKi) (converted)
T3 construct: expressed in transfected cells; host or cells: CHO-K1
T3 sequence (P25100 1-572): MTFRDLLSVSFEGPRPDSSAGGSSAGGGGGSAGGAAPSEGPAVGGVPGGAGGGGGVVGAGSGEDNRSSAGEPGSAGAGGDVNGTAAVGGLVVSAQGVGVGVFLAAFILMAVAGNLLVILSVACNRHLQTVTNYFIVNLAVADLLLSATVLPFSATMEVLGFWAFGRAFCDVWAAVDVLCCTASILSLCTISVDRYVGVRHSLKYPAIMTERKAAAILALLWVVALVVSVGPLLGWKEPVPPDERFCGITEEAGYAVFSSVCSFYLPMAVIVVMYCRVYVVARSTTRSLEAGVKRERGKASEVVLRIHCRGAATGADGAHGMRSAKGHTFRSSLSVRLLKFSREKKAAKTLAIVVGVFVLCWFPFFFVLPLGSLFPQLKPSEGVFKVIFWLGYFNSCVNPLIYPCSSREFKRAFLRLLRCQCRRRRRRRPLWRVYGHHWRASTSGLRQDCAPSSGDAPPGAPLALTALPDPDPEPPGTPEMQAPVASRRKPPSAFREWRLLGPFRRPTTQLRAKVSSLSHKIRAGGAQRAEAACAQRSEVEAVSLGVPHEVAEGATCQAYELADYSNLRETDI
Protocol: as §1, §2, §3

[4] = tested on: hypogastric nerve stimulation-induced increases in intraurethral pressure and phenylephrine-induced increases in diastolic blood pressure; experiment: Dog in vivo blood and intraurethral pressure assay; conditions: anesthetized mongrel dogs, i.v. bolus, increasing doses
Protocol: The following describes an in vivo assay for measuring the relative effect of test compounds on hypogastric nerve stimulation-induced increases in intraurethral pressure and phenylephrine-induced increases in diastolic blood pressure in anesthetized dog.
Mongrel dogs (10 to 20 kg) were fasted for 12 to 18 hours and anesthetized with […] (35 mg/kg, i.v.). An endotracheal tube was inserted and thereafter the lungs were mechanically ventilated with room air. The right femoral vein was isolated and cannulated with two polyethylene cannulae, one for the administration of a continuous infusion of phenobarbital sodium (5 to 10 mg/kg/hr) and the other for bolus administration of test substances. The right femoral artery was isolated and cannulated to the abdominal aorta with a fluid filled polyethylene cannula connected to an external pressure transducer for monitoring diastolic aortic pressure (DAP). The bladder was exposed via a ventral midline abdominal incision and emptied of urine through a 22 gauge needle. The bladder was cannulated through a stab incision with a water filled balloon catheter connected to an external pressure transducer for monitoring prostatic intraurethral pressure (IUP). The right hypogastric nerve (HGN) was carefully isolated and attached to a Dastre's electrode for nerve stimulation. […]

Row | Structure (SMILES) | Ki [1] [nM] | Ki [2] [nM] | Ki [3] [nM] | inhibition of HGN stimulation-induced increases in IUP and of phenylephrine-induced increases in DAP [4]
1 | COc1cc2nc(N3CCc4ccc(S(=O)(=O)N5CCOCC5)cc4C3)[nH]c(=O)c2cc1OC [Compound 404, 6,7-dimethoxy-2-[7-(morpholine-4-sulfonyl)-3,4-dihydro-1H-isoquinolin-2-yl]-3H-quinazolin-4-one] | 63.1 | 8.13 | 275 | 
2 | COc1cc2nc(N3CCc4c(ncn4Cc4ccccc4)C3)[nH]c(=O)c2cc1OC [Compound 501, 2-(1-benzyl-1,4,6,7-tetrahydro-imidazo[4,5-c]pyridin-5-yl)-6,7-dimethoxy-3H-quinazolin-4-one] | 20 | 3.39 | 347 | 
3 | COc1cc2nc(N3CCc4c(ncn4-c4ccccc4)C3)[nH]c(=O)c2cc1OC [Compound 602, 6,7-dimethoxy-2-(1-phenyl-1,4,6,7-tetrahydro-imidazo[4,5-c]pyridin-5-yl)-3H-quinazolin-4-one] | 4.27 | 0.832 | 37.2 | 
4 | COc1ccc(-n2cnc3c2CCN(c2nc4cc(OC)c(OC)cc4c(=O)[nH]2)C3)cc1 [Compound 608, 6,7-dimethoxy-2-[1-(4-methoxy-phenyl)-1,4,6,7-tetrahydro-imidazo[4,5-c]pyridin-5-yl]-3H-quinazolin-4-one] | 5.89 | 2.75 | 83.2 | 
5 | COc1cc2nc(N3CCc4c(ncn4-c4ccc5c(c4)OCO5)C3)[nH]c(=O)c2cc1OC [Compound 612, 2-(1-benzo[1,3]dioxol-5-yl-1,4,6,7-tetrahydro-imidazo[4,5-c]pyridin-5-yl)-6,7-dimethoxy-3H-quinazolin-4-one] | 12.3 | 2.69 | 178 | 
6 | COc1cc2[nH]c(N3CCc4c(ncn4C4CCCCC4)C3)nc(=O)c2cc1OC [Compound 619, 2-(1-cyclohexyl-1,4,6,7-tetrahydro-imidazo[4,5-c]pyridin-5-yl)-6,7-dimethoxy-1H-quinazolin-4-one] | 7.59 | 3.72 | 81.3 | 
7 | COc1cc2nc(N3CCc4c(cccc4N=CN(C)C)C3)[nH]c(=O)c2cc1OC [Compound 801, N-[2-(6,7-dimethoxy-4-oxo-3,4-dihydro-quinazolin-2-yl)-1,2,3,4-tetrahydro-isoquinolin-5-yl]-N,N-dimethyl-formamidine] | 4.47 | 2.75 | 372 | 
8 | COc1cc2nc(N3CCc4c(cccc4NC4=NCCC4)C3)[nH]c(=O)c2cc1OC [Compound 810, 2-[5-(4,5-dihydro-3H-pyrrol-2-ylamino)-3,4-dihydro-1H-isoquinolin-2-yl]-6,7-dimethoxy-3H-quinazolin-4-one] | 6.61 | 9.55 | 398 | 
9 | COc1cc2nc(N3CCc4c(cccc4-c4cnccc4N)C3)[nH]c(=O)c2cc1OC [Compound 902, 2-[5-(4-amino-pyridin-3-yl)-3,4-dihydro-1H-isoquinolin-2-yl)-6,7-dimethoxy-3H-quinazolin-4-one] | 56.2 | 25.1 | 692 | 
10 | COc1cc2nc(N3CCN(C(=O)c4ccco4)CC3)nc(N)c2cc1OC [prazosin] |  |  |  | inhibited increases in IUP and DAP in similar fashion
